Measured values from patent US11806343B2, “Inhibitors of DUX4 induction for regulation of muscle function” (Sonic Master Limited, priority 2017, dated 2023).
Where two headings read alike, the source gives them in different places.

Tests used:
DUX4 [1] = experiment: FSHD hESC-SkM immunocytochemistry, DUX4 expression; type: cell-based, human
Experimental: (§1) FIG. 6 provides an example of a screening and culturing workflow for hESC-SkM assays. At Day 0, hESC-derived myoblasts are thawed into a 96-well plate in myoblast medium (Genea BioCells). On Day 2, the medium is replaced with new myoblast medium containing 1.15 μM. Decitabine. […] On Day 7, the myotubes are analyzed. For example, the myotubes may be analyzed for MHC expression or DUX4 expression.
(§2) Genea049 FSHD-affected human Embryonic Stem Cells (hESCs) were differentiated using Genea's myogenic differentiation protocol (Caron et 2015) to the myoblast stage and cryopreserved. Frozen myoblasts were resuscitated and 4500 cells were plated into each well of a 96-well collagen I coated tissue culture plate in myoblast medium. After two days of cell growth medium was changed to 100 μL per well myoblast medium containing 1.15 μM Decitabine. […] Cells were allowed to differentiate to myotubes for four additional days then were fixed and analyzed for quantification of DUX4 expression, Myosin Heavy Chain expression, and nuclei number. Triplicate wells of each condition were averaged.
as §2, with “et al.,” for “et”, “number by high-content imaging.” for “number.”

Genea049 FSHD hESC-SkM = experiment: FSHD hESC-SkM immunocytochemistry, Myosin Heavy Chain and nuclei (myogenic inhibition/toxicity); type: cell-based, human
Experimental: as §1, §2
as §2, with “et al.,” for “et”, “number by high-content imaging.” for “number.”

DUX4 [2] = experiment: FSHD primary patient biopsy myotube immunocytochemistry, DUX4 expression; type: cell-based, human
Experimental: FIG. 10 provides the workflow for assays performed with patient biopsy-derived muscle. On Day 0, patient myoblasts are passaged in a 96-well dish in primary myoblast medium (Genea BioCells). On Day 2, the medium is changed to […].
17MB026 primary FSHD-affected patient myoblasts (obtained from the University of Rochester FSHD Biorepository) were thawed and cultured as described in Rickard et al., 2015 in primary myoblast medium. Cells (6000 per well) were seeded to a collagen-I coated 96-well plate in 100 μl primary myoblast medium. Medium was changed every other day until cells reached 80% confluence followed by a switch to 100 μL per well primary myotube medium. […] Cells were fixed and analyzed after 2.5 days of myotube formation by immunocytochemistry and high-content imaging for DUX4, H3.X/Y, Myosin Heavy Chain expression and nuclei number. Five or six replicate wells were averaged per condition, […]

[3] = Acute pharmacokinetic study, plasma; type: in vivo, CD-1 mice; details: mouse plasma; for AUClast: 0 to 24 hours
Experimental: (§3) Intraperitoneal injection, which provides the drug via absorption into the mesenteric blood supply and is thus subject to hepatic first-pass metabolism, was used to approximate oral dosings total of 96 mice were utilized: 3 naive CD-1 male mice and 3 naïve CD-1 female mice were dosed per route of administration per 2 doses plus 3 naive CD-1 male mice and 3 naïve CD-1 female mice were per route of administration per dose for tissue collection. Following administration, blood, brain, and muscle samples were collected as follows; Two blood samples were collected from each mouse at 2 distinct timepoints over 24 bout post-dose to include 0.25, 0.5, 1, 2, 4, 8, and 24 hours. Blood samples were centrifuged to obtain plasma samples. For each time point, duplicate aliquots of plasma were transferred into an appropriately labeled sample tube containing a volume of buffer. The diluted plasma samples were stored at −20° C. for the first 24 hours and then transferred to −80° C. 24 hours of processing. Terminal brain and muscle samples were collected at 1 hour and 24 hours after administration. Tissue samples were temporarily put on dry ice and then stored at −20° C. for the first 24 hours and then transferred to −80° C. 24 hours of collection Plasma, brain and muscle samples were analyzed for test substance quantification using a method based on protein precipitation followed by HPLC-MS/MS analysis within optimized bioanalytical method.

[4] = Tissue distribution study, brain and muscle; type: in vivo, CD-1 mice; details: mouse; for Uninjected muscle exposure / brain exposure: samples at 1 hour and 24 hours
Experimental: as §3
FIG. 31B. […] For IM injected animals, both the injected gastrocnemius muscle and the contralateral (uninjected gastrocnemius)) muscle were collected. […] Concentrations are shown as mean with SD, N=6

PRKDC = experiment: RT-PCR of PRKDC mRNA in patient biopsy-derived primary myotubes; type: cell-based, human; details: 10 nM-1 μM, 2.5 days, vs vehicle
Experimental: (§4) Patient biopsy-derived primary myoblasts were seeded to a collagen-I coated plate in primary myoblast medium. Medium was changed every other day until cells reached 80% confluence followed by a switch to primary myotube medium. […] After 2.5 days of myotube formation, the cells were lysed with buffer RLT followed by RNA isolation with RNeasy Plus Mini Kit (Qiagen). 500 ng of RNA was used for cDNA synthesis with SuperScript III first-strand synthesis system for RT-PCR (Invitrogen) and both random hexamers and oligo(dT)20 primers. RT-PCR was performed using TaqMan™ Fast Advanced Master Mix (Applied Biosystems). Reactions were analyzed upon a QuantStudio 3 Real-Time PCR machine using the following cycle conditions: 50° C. for 2 minutes, 95° C. for 2 minutes, followed by 40 cycles at 95° C. for 15 seconds, 60° C. for 1 minute, Results were normalized against GAPDH expression.

SRC = experiment: RT-PCR of SRC mRNA in patient biopsy-derived primary myotubes; type: cell-based, human; details: 10 nM-1 μM, 2.5 days, vs vehicle
Experimental: as §4

[5] = IM, 10 mg/kg single dose, N = 6
[6] = IM, 50 mg/kg single dose, N = 6
[7] = IP, 10 mg/kg single dose, N = 6
[8] = IP, 50 mg/kg single dose, N = 6

Question: Which DUX4 expression (DUX4 [1]; Genea049 hESC-SkM, 100 nM, four days of culture during myotube formation) does the source give for `CNC(=O)c1cc(Oc2ccc(NC(=O)Nc3cc(C(C)(C)C)nn3-c3ccc4ncccc4c3)c(F)c2)ccn1` [GBC0905, Rebastinib] here?
Answer: decreased DUX4 expression

Question: What about the “DUX4 expression, dose curve” value (DUX4 [1]; Genea049 hESC-SkM, six concentration points 10 nM-3 μM, four days) of the same compound?
Answer: dose-dependent decreased DUX4 expression

Question: What about the IC50 (DUX4 [1]; Homo sapiens, Genea049 hESC-SkM dose curve, read-out: estimated IC50 value, DUX4-suppressive effect) of the same compound?
Answer: ~100 nM

Question: And the “Myosin Heavy Chain expression and nuclei count, dose curve” value (Genea049 FSHD hESC-SkM; 10 nM-3 μM, four days)?
Answer: not seen in cells treated with GBC0905 (Rebastinib) at concentrations lower than 3 μM

Question: What about the “Myosin Heavy Chain expression and nuclei count” value (Genea049 FSHD hESC-SkM; 100 nM, four days of culture) of the same compound?
Answer: these effects are not seen

Question: What about the “DUX4 expression, dose curve” value (DUX4 [2]; 17MB026 primary myotubes, 10-point dose curve 2 nM-5 μM, 2.5 days) of the same compound?
Answer: dose-dependent decrease of DUX4 expression

Question: What about the IC50 (DUX4 [2]; Homo sapiens, Myotube, 17MB026 primary FSHD patient myotubes, read-out: IC50 value, DUX4-suppressive effect) of the same compound?
Answer: ~100 nM

Question: And the tmax ([3]; both sexes, CD-1, im, intramuscular injection, 10 or 50 mg/kg, read-out: median time to maximum concentration (Tmax))?
Answer: 2 to 4 h

Question: What about the AUClast [3, 5] of the same compound?
Answer: 93.54 µg·h/mL

Question: What about the “AUC∞” value [3, 5] of the same compound?
Answer: 98.469 µg·h/mL

Question: And the Cmax [3, 5]?
Answer: 8203 ng/mL

Question: And the “MRT∞” value [3, 5]?
Answer: 7.83 h

Question: What about the t1/2 [3, 5] of the same compound?
Answer: 5.59 h

Question: What about the tmax [3, 5] of the same compound?
Answer: 2 h

Question: And the AUClast [3, 6]?
Answer: 222.518 µg·h/mL

Question: And the “AUC∞” value [3, 6]?
Answer: 256.486 µg·h/mL

Question: And the Cmax [3, 6]?
Answer: 15103 ng/mL

Question: And the “MRT∞” value [3, 6]?
Answer: 11.8 h

Question: And the t1/2 [3, 6]?
Answer: 8.10 h

Question: And the tmax [3, 6]?
Answer: 4 h

Question: What about the AUClast [3, 7] of the same compound?
Answer: 162.488 µg·h/mL

Question: And the “AUC∞” value [3, 7]?
Answer: 162.568 µg·h/mL

Question: What about the Cmax [3, 7] of the same compound?
Answer: 23683 ng/mL

Question: What about the “MRT∞” value [3, 7] of the same compound?
Answer: 4.46 h

Question: What about the t1/2 [3, 7] of the same compound?
Answer: 2.12 h

Question: What about the tmax [3, 7] of the same compound?
Answer: 2 h

Question: And the AUClast [3, 8]?
Answer: 651.387 µg·h/mL

Question: What about the “AUC∞” value [3, 8] of the same compound?
Answer: 651.534 µg·h/mL

Question: What about the Cmax [3, 8] of the same compound?
Answer: 81633 ng/mL

Question: What about the “MRT∞” value [3, 8] of the same compound?
Answer: 4.73 h

Question: And the t1/2 [3, 8]?
Answer: 1.90 h

Question: What about the tmax [3, 8] of the same compound?
Answer: 2 h

Question: And the “median time to maximum concentration (Tmax)” value ([3]; intraperitoneal injection, 10 or 50 mg/kg)?
Answer: 2 h

Question: And the Brain concentration ([4]; 24 hours after IM injection at 10 mg/kg)?
Answer: below the Lower Limit of Quantification (LLOQ)

Question: And the Uninjected muscle exposure ([4]; intramuscular administration)?
Answer: ≤ 157 ng/g

Question: And the brain exposure ([4]; intramuscular administration)?
Answer: ≤ 351 ng/g

Question: And the “Exposure of the injected muscle (gastrocnemius)” value ([4]; intramuscular dosing, after 24 hours)?
Answer: 1441667 ng/g

Question: What about the Uninjected muscle exposure ([4]; intraperitoneal administration) of the same compound?
Answer: up to 1336 ng/g

Question: What about the brain exposure ([4]; intraperitoneal administration) of the same compound?
Answer: up to 441 ng/g

Question: What about the “expression levels of PRKDC (mRNA)” value (PRKDC) of the same compound?
Answer: No significant difference

Question: What about the “expression levels of SRC (mRNA)” value (SRC) of the same compound?
Answer: No significant difference
